Tested on: murine fibroblasts (NIH3T3) over-expressing human IGF-1 receptor
Test: Test (c): inhibition of IGF-stimulated cell proliferation (BrdU incorporation)
Type: cell-based
Settings: inhibition of IGF-stimulated proliferation in NIH3T3 over-expressing human IGF-1 receptor
Protocol: The construction of murine fibroblasts (NIH3T3) over-expressing human IGF-1 receptor has been described by Lammers et al (EMBO J, 8, 1369-1375, 1989). These cells show a proliferative response to IGF-I which can be measured by BrdU incorporation into newly synthesised DNA. Compound potency was determined as causing inhibition of the IGF-stimulated proliferation in the following assay:
Compounds are initially dissolved in DMSO to 10 mM, followed by dilutions in DMEM+1% FCS+glutamine to give a range from […] in 1-0.00045% DMSO final concentration in assay well.
Exponentially growing NIH3T3/IGFR cells were harvested and seeded in complete growth medium into a flat-bottomed 96 well tissue culture grade plate (Costar 3525) at 1.2×10^4 cells per well in a volume of 100 μl.
Growth medium was carefully removed from each well using a multi-channel pipette. Wells were carefully rinsed three times with 200 μl with HBSS. 100 μl of starvation medium was added to each well and the plate was re-incubated for 24 hours.
50 μl of a 4× concentrate of test compound was added to appropriate wells. Cells were incubated for 30 minutes with compound alone before the addition of IGF. For cells treated with IGF, an appropriate volume (i.e. 25 μl) of starvation medium was added to make a final volume per well up to 200 μl followed by 25 μl of IGF-1 at 160 ng/ml (to give a final concentration of 20 ng/ml). […] The plate was re-incubated for 20 hours.
The incorporation of BrdU in the cells (after a 4 h incorporation period) was assessed using the BrdU Cell Proliferation Elisa according to the manufacturer's protocol.

Cc1cc(Nc2cc(C)[nH]n2)nc(N2CCC[C@H]2c2cc(-c3cccnc3C)no2)n1 [Example 3, S-2-[2-{3-(2-Methylpyrid-3-yl)isoxazol-5-yl}pyrrolidin-1-yl]-6-methyl-4-(5-methyl-1H-pyrazol-3-ylamino)pyrimidine]
IC50: 0.006 µM

CCOc1nccnc1-c1cc([C@@H]2CCCN2c2nc(C)cc(Nc3cc(C)[nH]n3)n2)on1 [Example 1, S-2-[2-{3-(3-Ethoxypyrazin-2-yl)isoxazol-5-yl}pyrrolidin-1-yl]-6-methyl-4-(5-methyl-1H-pyrazol-3-ylamino)pyrimidine]
IC50: 0.04 µM

Cc1cc(Nc2cc(C)[nH]n2)nc(N2CCC[C@H]2c2cc(-c3cccnc3C#N)no2)n1 [Example 7, S-2-[2-{3-(2-Cyanopyrid-3-yl)isoxazol-5-yl}pyrrolidin-1-yl]-6-methyl-4-(5-methyl-1H-pyrazol-3-ylamino)pyrimidine]
IC50: 0.004 µM
